Experimental data reported in PubChem BioAssay (NCI).
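In this assay, cells in 96-well plates receive the compound at five concentrations for 48 hours. Endpoints are linearly interpolated between the surrounding concentrations. At the GI50, growth is halved. The concentration for full growth arrest is given as TGI.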

Experiments:
Assay in all cases: NCI-60 cell line screen, 48 h
[1] = tested on: SK-MEL-5 melanoma
[2] = tested on: SF-539 CNS
[3] = tested on: SR leukemia
[4] = tested on: EKVX NSCLC
[5] = tested on: NCI-H522 lung
[6] = tested on: NCI-H226 lung
[7] = tested on: A549 NSCLC
[8] = tested on: RXF 393 renal
[9] = tested on: ACHN renal
[10] = tested on: IGROV1 ovarian

Compound	GI50 [1] [µM]	TGI [1] [µM]	GI50 [2] [µM]	TGI [2] [µM]	GI50 [3] [µM]	TGI [3] [µM]	GI50 [4] [µM]	TGI [4] [µM]	GI50 [5] [µM]	TGI [5] [µM]	GI50 [6] [µM]	TGI [6] [µM]	GI50 [7] [µM]	TGI [7] [µM]	GI50 [8] [µM]	TGI [8] [µM]	GI50 [9] [µM]	TGI [9] [µM]	TGI [10] [µM]
Cc1cc(N2CCCCC2)nc(NCc2cc(Nc3ccnc4cc(Cl)ccc34)ccc2F)n1	1.05	2.25	1.58	3.04	1.94	4.99	1.62	3.77	1.71	3.37	2.02	4.57	1.7	3.22	1.79	3.47	1.66	3.25	
CC(C)C(C)C(O)C(O)C(C)C1CCC2C3COC(=O)C4CC(O)C(O)CC4(C)C3CCC12C (configuration not stated)		> 100		> 100				> 100		> 100		> 100		> 100		67.4		> 100	> 100
NS(=O)(=O)c1ccc(C(=O)O)cc1		> 100						> 100		> 100				> 100		> 100		> 100	> 100
COc1ccc(C(=O)NNC(=O)c2nsc3ccccc23)cc1		> 100		> 100				> 100						> 100		> 100			> 100
NC(CCCNc1ccc(O)cc1)C(=O)O (configuration not stated)		63.8		83.5		55.8		> 88.8		> 100		> 100		> 100		63.6		> 57.4	61.5
CC1(C)CCCC2(C)C3=C(CCC12)C(=O)OC3 (configuration not stated)		> 100		> 100		> 100		> 100		> 100		> 100		> 100		> 100		> 100	> 100
COC(=O)C12OCC34C(CC5C(C)C6=CC(=O)OC6=CC5(C)C3C(O)C1O)OC(=O)C(OC(C)=O)C24 (configuration not stated)		24.9		34		64.6		31		24.6		53.2		49.9		29		38.9	65.1
Cn1c(=O)c2c(nc(N3CCOCC3)n2CCCNCC(O)c2ccc(O)c(O)c2)n(C)c1=O (configuration not stated)		> 100		> 100		> 100		> 100		> 100		> 100		> 100		> 100		> 100	> 100
O=C1CC(c2ccccc2)NCCCCN2CC(CN1)C(C(O)c1ccccc1)C2=O (configuration not stated)		> 100		> 100		> 100		> 100		> 100		> 100		> 100		> 100		> 100	> 100
CC1(C)CCc2cc3c(cc2O1)OC(C)(C)CC3=O		52.2		> 100		> 100		> 100		> 100		> 100		> 100				> 100	> 100
CCc1cc(C)cc2[n+]1CC=C2C		> 100		> 100				> 100		> 100		> 100		> 100		> 100		> 100	
